The source of these data is patent publication US20120095032A1, “METHODS FOR TREATING LEUKEMIA AND MYELODYSPLASTIC SYNDROME, AND METHODS FOR IDENTIFYING AGENTS FOR TREATING SAME” (Sanford-Burnham Medical Research Institute, priority 2007, published 2012).

Test [1] addresses T1, HePTP (Homo sapiens, UniProt P35236).
T1 sequence (P35236 1-360): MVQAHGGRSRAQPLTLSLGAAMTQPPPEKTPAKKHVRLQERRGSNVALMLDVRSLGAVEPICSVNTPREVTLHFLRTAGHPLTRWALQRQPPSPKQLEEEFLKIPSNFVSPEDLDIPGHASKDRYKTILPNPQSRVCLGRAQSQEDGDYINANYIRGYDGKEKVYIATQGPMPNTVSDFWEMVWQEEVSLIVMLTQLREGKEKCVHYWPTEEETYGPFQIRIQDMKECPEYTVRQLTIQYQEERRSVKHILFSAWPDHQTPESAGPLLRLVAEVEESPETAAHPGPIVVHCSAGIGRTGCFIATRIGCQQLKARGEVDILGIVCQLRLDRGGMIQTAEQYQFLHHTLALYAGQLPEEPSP
The test can be described thus: HePTP HTS primary screen (colorimetric pNPP / Biomol Green). Format: biochemical. As to conditions: 20 μM compound; read-out: % Inhib. at 20 μM. The source says:
(§1) The following assay can be conducted manually or can be carried out by a robotic station.
For this assay, HePTP catalyzes the following reaction:
wherein p-nitrophenyl phosphate serves as a substrate and is cleaved to form p-nitrophenol and phosphate. The liberated phosphate complexes with the Biomol Green™ reagent to provide a quantitative colorimetric value for the amount of substrate cleaved.
(§2) Compounds are then serially diluted in 100% DMSO, and then diluted with water to 10% final DMSO concentration.
(§3) The primary screening actives can then proceed to the dose-response confirmation stage.

Test [2] concerns the target T1, HePTP. The test can be described thus: HePTP dose-response confirmation screening. Format: biochemical. The settings on record: for IC50: 10 concentrations, 2-fold serial dilution, pNPP substrate; for n / nH (Hill coefficient): Hill coefficient of the dose-response curve.
Source text: as §1, §2, §3
* n represents the Hill coefficient. This coefficient is derived from the Hill equation which has the formula: […]
wherein θ is the fraction of ligand binding sites filled, L is the inhibitor concentration, Ka is the inhibitor concentration producing half occupation of the ligand binding sites, and n is the Hill coefficient.

In the case of `Cc1cc(NC(=O)Cc2cccs2)no1` [N-(5-methyl-1,2-oxazol-3-yl)-2-thiophen-2-ylacetamide], the inhibition at 20 µM at HePTP [1] turned out to be 99.7%. Also, on HePTP [2], the IC50 was 700 nM and the “n / nH (Hill coefficient)” value was found to be 2.49.
The corresponding values for `COc1ccc(C(=O)c2no[n+]([O-])c2C(=O)c2ccc(OC)cc2)cc1` [[4-(4-Methoxybenzoyl)-2-oxido-1-oxa-5-aza-2-azoniacyclopenta-2,4-dien-3-yl]-(4-methoxyphenyl)methanone] are 86.3%, 11300 nM and 0.45.
For `Cc1ccc(C)n1-c1cccc(C(=O)O)c1` [3-(2,5-Dimethylpyrrol-1-yl)benzoic acid], in that order: 102%, 1300 nM and 2.59.
The corresponding values for `CCC1=NC2Sc3ccccc3C(=O)C2C(=O)N1Cc1ccco1` (centres unmarked) are 79.4%, 15100 nM and 1.27.
`Cc1cccc(Nc2nn3c(=O)c4ccccc4nc3s2)c1` [2-(3-Methylphenylamino)-5H-[1,3,4]thiadiazolo[2,3-b]quinazolin-5-one]: the inhibition at 20 µM at HePTP [1] was 53.9%. In addition, at HePTP [2], the half-inhibitory concentration (IC50) amounted to 2740 nM and the “n / nH (Hill coefficient)” value was 1.32.
The corresponding values for `COc1ccc2c(c1)=CC(=C1N=C(c3ccccc3)ON1)C(=O)N=2` (stereo in doubt) [(3Z)-6-methoxy-3-(5-phenyl-1,2,4-oxadiazol-3-ylidene)quinolin-2-one] are 77.1%, 4230 nM and 4.29.
Regarding `Cc1ccc(C)n1C(Cc1ccccc1)C(=O)O` (centres unmarked) [2-(2,5-Dimethylpyrrol-1-yl)-3-phenyl-propanoic acid], the inhibition at 20 µM at HePTP [1] worked out at 102%. The compound also gave a 50% inhibitory concentration (IC50) against HePTP [2] of 420 nM.
With `Cc1cc(C(=O)O)ccc1-n1c(C)ccc1C` [4-(2,5-Dimethylpyrrol-1-yl)-3-methyl-benzoic acid], the inhibition at 20 µM on HePTP [1] was 103%. At HePTP [2], the IC50 stood at 700 nM and the “n / nH (Hill coefficient)” value came out at 2.09.
Regarding `COc1ccc(N2Cc3cccc(C(=O)O)c3C2=O)cc1` [2-(4-Methoxyphenyl)-3-oxo-1H-isoindole-4-carboxylic acid], the inhibition at 20 µM on HePTP [1] turned out to be 57.2%. Also, on HePTP [2], the 50% inhibitory concentration (IC50) was found to be 1170 nM and the “n / nH (Hill coefficient)” value is 3.7.
The corresponding values for `O=C(Oc1ccccc1)c1ccc2c(c1)C1C=CCC1C(C(=O)O)N2` (centres unmarked) [8-(phenoxycarbonyl)-3a,4,5,9b-tetrahydro-3H-cyclopenta[c]quinoline-4-carboxylic acid] are 96.4%, 840 nM and 3.34.
The corresponding values for `CN(C)c1ccc(-c2nn3c(-c4ccc(Cl)cc4Cl)nnc3s2)cc1` [4-[2-(2,4-Dichlorophenyl)-6-thia-1,3,4,8-tetrazabicyclo[3.3.0]octa-2,4,7-trien-7-yl]-N,N-dimethyl-aniline] are 64.3%, 78400 nM and 2.71.
As for `O=C(O)c1c[nH]c2ccc(S(=O)(=O)N3CCN(c4ccc(F)cc4)CC3)cc2c1=O` [6-[4-(4-Fluorophenyl)piperazin-1-yl]sulfonyl-4-oxo-1H-quinoline-3-carboxylic acid], the inhibition at 20 µM at HePTP [1] was 103%. On HePTP [2], the IC50 was found to be 4660 nM and the “n / nH (Hill coefficient)” value came to 2.66.
For `COC(=O)c1ccccc1NC(=O)c1noc2ccccc12` [Methyl 2-(4-oxa-3-azabicyclo[3.3.0]octa-2,9-diene-2-carbonylamino)benzoate], in that order: 81.2%, 2330 nM and 1.45.
Consider `c1ccc(CSc2nnc(-c3ccco3)c(-c3ccco3)n2)cc1` [3-Benzylsulfanyl-5,6-bis(2-furyl)-1,2,4-triazine], for which the inhibition at 20 µM at HePTP [1] is 53.9%. For the same compound, at HePTP [2], the IC50 was 2740 nM and the “n / nH (Hill coefficient)” value was determined as 1.32.
For the compound `O=C(c1ccc(=O)oc1)N1CCOCC1`, the inhibition at 20 µM on HePTP [1] was determined as 54.1%. At HePTP [2], the IC50 was determined as 990 nM and the “n / nH (Hill coefficient)” value was 1.02.
The corresponding values for `COc1ccc(Cn2c(C)nc3c(c2=O)c2nc4ccccc4nc2n3Cc2ccco2)cc1` are 104%, 6860 nM and 2.17.
The corresponding values for `COc1ccc(Cc2nnc(NC(=O)Cc3cccs3)s2)cc1` [N-{5-[(4-methoxyphenyl)methyl]-1,3,4-thiadiazol-2-yl}-2-thiophen-2-ylacetamide] are 103%, 4020 nM and 2.33.
For `Cn1nnnc1SCC1=C(C(=O)[O-])N2C(=O)[C@H](NC(=O)[C@H](O)c3ccccc3)[C@H]2SC1.[Na+]` [Sodium (6R,7S)-7-[[(2R)-2-hydroxy-2-phenyl-acetyl]amino]-3-[(1-methyltetrazol-5-yl)sulfanylmethyl]-8-oxo-5-thia-1-azabicyclo[4.2.0]oct-2-ene-2-carboxylate], in that order: 98%, 100 nM and 0.6.
For `COc1ccc(OC)c(N2C(=O)[C@H]3C(c4ccccc4Cl)=NO[C@@H]3C2=O)c1` [(1S,5S)-2-(2-chlorophenyl)-7-(2,5-dimethoxyphenyl)-4-oxa-3,7-diazabicyclo[3.3.0]oct-2-ene-6,8-dione], on HePTP [1], the inhibition at 20 µM is 85.1%. At HePTP [2], the IC50 was 8250 nM and the “n / nH (Hill coefficient)” value stood at 2.27.
The corresponding values for `O=C(CCS(=O)(=O)c1ccc(Br)cc1)NCc1cccs1` [3-(4-Bromophenyl)sulfonyl-N-(thiophen-2-ylmethyl)propanamide] are 103%, 68300 nM and 1.24.
With `Cc1ccc2c(c1C)NC(C(=O)O)C1CC=CC21` (centres unmarked) [6,7-dimethyl-3a,4,5,9b-tetrahydro-3H-cyclopenta[c]quinoline-4-carboxylic acid], the inhibition at 20 µM on HePTP [1] is 102%. Moreover, on HePTP [2], it took 2120 nM to reach half-maximal inhibition (IC50) and the “n / nH (Hill coefficient)” value was determined as 2.01.
For `CCn1c(SC(C)C(=O)O)nc2c(c1=O)C1=C(CCC1)C2` (centres unmarked), in that order: 86%, 1690 nM and 3.77.
The corresponding values for `Cn1cnnc1SCC(=O)Nc1sc2c(c1C(=O)ON)CCC2` [N-[3-(aminooxycarbonyl)-5,6-dihydro-4H-cyclopenta[b]thiophen-2-yl]-2-(4-methyl-4H-1,2,4-triazol-3-ylthio)acetamide] are 90.2%, 2430 nM and 2.33.
The corresponding values for `C/C(N)=C(\C#N)C(=O)CSc1nnc(Nc2c(C)cccc2C)s1` [(Z)-3-Amino-2-[2-[[5-[(2,6-dimethylphenyl)amino]-1,3,4-thiadiazol-2-yl]sulfanyl]acetyl]but-2-enenitrile] are 77.9%, 30200 nM and 2.66.
Turning to `c1coc(-c2nc(-c3ccco3)c(-c3ccco3)nc2-c2ccco2)c1` [2,3,5,6-tetrakis(2-furyl)pyrazine], on HePTP [1], the inhibition at 20 µM was 74.1%. Moreover, on HePTP [2], the IC50 was found to be 1140 nM and the “n / nH (Hill coefficient)” value was determined as 2.26.
For `O=C(O)c1ccccc1-c1ccc(/C=c2\sc3nc4cc(Br)cnc4n3c2=O)o1`, in that order: 102%, 1790 nM and 7.56.
Regarding `Cc1cc(C)n(-c2nc(Nc3ccccc3)nc(-n3nc(C)cc3C)n2)n1` [4,6-bis(3,5-Dimethylpyrazol-1-yl)-N-phenyl-1,3,5-triazin-2-amine], the inhibition at 20 µM at HePTP [1] came to 50.5%. Besides, on HePTP [2], the midpoint of inhibition, the IC50, lay at 21600 nM and the “n / nH (Hill coefficient)” value is given as 2.83.
Consider `CC(C)Cn1c(N)c(C(=O)COC(=O)c2cc(-c3ccco3)nc3ccccc23)c(=O)n(C)c1=O` [[2-[4-Amino-1-methyl-3-(2-methylpropyl)-2,6-dioxo-pyrimidin-5-yl]-2-oxo-ethyl] 2-(2-furyl)quinoline-4-carboxylate], for which the inhibition at 20 µM at HePTP [1] was 89.7%. In addition, on HePTP [2], the IC50 is 5270 nM and the “n / nH (Hill coefficient)” value is 2.48.
For `CC(=O)OCC1=C(C(=O)[O-])N2C(=O)[C@H](NC(=O)Cc3cccs3)[C@H]2SC1.[Na+]` [Sodium (6R,7S)-3-(acetyloxymethyl)-8-oxo-7-[(2-thiophen-2-ylacetyl)amino]-5-thia-1-azabicyclo[4.2.0]oct-2-ene-2-carboxylate], in that order: 96.2%, 920 nM and 1.12.
The corresponding values for `CSc1nc(N(CCO)CCO)c2sc3nc(-c4ccco4)c4c(c3c2n1)CCC4` are 62.5%, 410 nM and 2.28.
